The record followed here is US10208059B2, “Heterocyclic modulators of HIF activity for treatment of disease” (Board of Regents, University of Texas System, priority 2012, dated 2019).

Molecules are shown by their SMILES. Bounds are passed on as bounds.

This experiment has as its system 293T-HRE-GFP-luc cells. Nature of the experiment: Cell-based reporter assay for IC50 determinations. The conditions noted are these: hypoxia 6 hrs (1% O2), luminescence, read-out: IC50 Classification. Here is the method: Cell-Based Reporter Assay for IC50 Determinations
293T-HRE-GFP-luc cells were routinely maintained in DMEM media (high glucose version with GlutaMAX and HEPES, Gibco, catalog #10564) supplemented with 10% fetal bovine serum and 2 μg/mL puromycin (Invitrogen, catalog #A11138-03) using a humidified incubator (normoxia conditions consisting of 37° C., 5% CO2 and ambient O2).
In preparation for the reporter assay, cells were harvested and resuspended in DMEM media (high glucose version with GlutaMAX and HEPES) supplemented with 10% fetal bovine serum. Cells were inoculated into 384-well white Culturplates (Perkin Elmer catalog #6007680) at a density of 12,000 cells/well in a volume of 30 μL. The microplates were incubated overnight (approximately 17-19 hours) at 37° C. with 5% CO2 and ambient O2. Stock solutions of the test compounds were prepared in DMSO (Sigma, Catalog #D2650) and serially diluted 1:3 using DMSO. Compounds were additionally diluted (1:50) with culturemedium and 10 μL were added per well to the Culturplate. Following a 30 min. incubation under normoxia conditions, the plates were incubated in hypoxia for 6 hrs. (37° C., 5% CO2 and 1% O2). Steadylite Plus (Perkin Elmer, catalog #6016751) was then added (40 μL/well), the plates were mixed on an orbital shaker at room temperature in the dark for 15 min., and luminescence was measured using an Envision plate reader (Perkin Elmer). IC50 values were calculated using a four-parameter logistic curve fit. Results are shown below in Table 2; ND indicates no data.
On to `Cc1nc(-c2nc(-c3ccc(OC(F)(F)F)cc3)no2)nn1Cc1cccc(N2CCOCC2)c1` [Example 44, 4-(3-((5-Methyl-3-(3-(4-(trifluoromethoxy)phenyl)-1,2,4-oxadiazol-5-yl)-1H-1,2,4-triazol-1-yl)methyl)phenyl)morpholine], for which the IC50 is under 100 nM. Regarding `Cc1nc(-c2nc(-c3ccc(OC(F)(F)F)cc3)no2)nn1Cc1ccnc(NCCN(C)C)c1` [Example 45, N1,N1-Dimethyl-N2-(4-((5-methyl-3-(3-(4-(trifluoromethoxy)phenyl)-1,2,4-oxadiazol-5-yl)-1H-1,2,4-triazol-1-yl)methyl)pyridin-2-yl)ethane-1,2-diamine], the IC50 is 1000 to 10000 nM. Then `Cc1nc(-c2nc(-c3ccc(OC(F)(F)F)cc3)no2)nn1Cc1ccnc(NCCN2CCCC2)c1` [Example 46, 4-((5-Methyl-3-(3-(4-(trifluoromethoxy)phenyl)-1,2,4-oxadiazol-5-yl)-1H-1,2,4-triazol-1-yl)methyl)-N-(2-(pyrrolidin-1-yl)ethyl)pyridin-2-amine], with 1000 to 10000 nM; and `Cc1nc(-c2nc(-c3ccc(OC(F)(F)F)cc3)no2)nn1Cc1ccc(Cl)s1` [Example 47, 5-(1-((5-Chlorothiophen-2-yl)methyl)-5-methyl-1H-1,2,4-triazol-3-yl)-3-(4-(trifluoromethoxy)phenyl)-1,2,4-oxadiazole], with 100 to 1000 nM. Next, `Cc1cc(Cn2nc(-c3nc(-c4ccc(OC(F)(F)F)cc4)no3)nc2C)n(C)n1` [Example 48, 5-(1-((1,3-Dimethyl-1H-pyrazol-5-yl)methyl)-5-methyl-1H-1,2,4-triazol-3-yl)-3-(4-(trifluoromethoxy)phenyl)-1,2,4-oxadiazole]: 100 to 1000 nM.

As to `Cc1nc(-c2nc(-c3ccc(OC(F)(F)F)cc3)no2)nn1Cc1cc(=O)n2ccsc2n1` [Example 49, 7-((5-Methyl-3-(3-(4-(trifluoromethoxy)phenyl)-1,2,4-oxadiazol-5-yl)-1H-1,2,4-triazol-1-yl)methyl)-5H-thiazolo[3,2-a]pyrimidin-5-one], the half-inhibitory concentration (IC50) is 100 to 1000 nM.

With `Cc1nc(-c2nc(-c3ccc(OC(F)(F)F)cc3)no2)nn1Cc1cccc(N2CCCC2)c1` [Example 50, 5-(5-Methyl-1-(3-(pyrrolidin-1-yl)benzyl)-1H-1,2,4-triazol-3-yl)-3-(4-(trifluoromethoxy)phenyl)-1,2,4-oxadiazole], the IC50 was in the range of 100 to 1000 nM. Then `Cc1nc(-c2nc(-c3ccc(OC(F)(F)F)cc3)no2)nn1Cc1cccc(N2CCC(C#N)CC2)c1` [Example 51, 1-(3-((5-Methyl-3-(3-(4-(trifluoromethoxy)phenyl)-1,2,4-oxadiazol-5-yl)-1H-1,2,4-triazol-1-yl)methyl)phenyl)piperidine-4-carbonitrile], with under 100 nM; and `Cc1nc(-c2nc(-c3ccc(OC(F)(F)F)cc3)no2)nn1Cc1cccc(N(C)C)c1` [Example 52, N,N-Dimethyl-3-((5-methyl-3-(3-(4-(trifluoromethoxy)phenyl)-1,2,4-oxadiazol-5-yl)-1H-1,2,4-triazol-1-yl)methyl)aniline], with under 100 nM; and `COCCCNc1cccc(Cn2nc(-c3nc(-c4ccc(OC(F)(F)F)cc4)no3)nc2C)c1` [Example 53, N-(3-Methoxypropyl)-3-((5-methyl-3-(3-(4-(trifluoromethoxy)phenyl)-1,2,4-oxadiazol-5-yl)-1H-1,2,4-triazol-1-yl)methyl)aniline], with under 100 nM. Then `Cc1nc(-c2nc(-c3ccc(OC(F)(F)F)cc3)no2)nn1Cc1cnccn1` [Example 54, 5-(5-Methyl-1-(pyrazin-2-ylmethyl)-1H-1,2,4-triazol-3-yl)-3-(4-(trifluoromethoxy)phenyl)-1,2,4-oxadiazole], with 1000 to 10000 nM; and `Cc1nc(-c2nc(-c3ccc(OC(F)(F)F)cc3)no2)nn1Cc1ccnc(N2CCOCC2)n1` [Example 55, 4-(4-((5-Methyl-3-(3-(4-(trifluoromethoxy)phenyl)-1,2,4-oxadiazol-5-yl)-1H-1,2,4-triazol-1-yl)methyl)pyrimidin-2-yl)morpholine], with under 100 nM; and `Cc1nc(-c2noc(-c3ccc(OC(F)(F)F)cc3)n2)nn1Cc1cccc(N2CCN(C)CC2)c1` [Example 56, 3-(5-Methyl-1-(3-(4-methylpiperazin-1-yl)benzyl)-1H-1,2,4-triazol-3-yl)-5-(4-(trifluoromethoxy)phenyl)-1,2,4-oxadiazole], with under 100 nM. Then `Cc1nc(-c2noc(-c3ccc(OC(F)(F)F)cc3)n2)nn1Cc1cccc(N2CCOCC2)c1` [Example 57, 4-(3-((5-Methyl-3-(5-(4-(trifluoromethoxy)phenyl)-1,2,4-oxadiazol-3-yl)-1H-1,2,4-triazol-1-yl)methyl)phenyl)morpholine], with under 100 nM; and `Cc1nc(-c2noc(-c3ccc(OC(F)(F)F)cc3)n2)nn1Cc1cccc(N(C)C)c1` [Example 58, N,N-Dimethyl-3-((5-methyl-3-(5-(4-(trifluoromethoxy)phenyl)-1,2,4-oxadiazol-3-yl)-1H-1,2,4-triazol-1-yl)methyl)aniline], with 100 to 1000 nM.

For `Cc1nc(-c2nc(-c3ccc(OC(F)(F)F)cc3)no2)nn1Cc1cccc(O)c1` [Example 59, 3-((5-Methyl-3-(3-(4-(trifluoromethoxy)phenyl)-1,2,4-oxadiazol-5-yl)-1H-1,2,4-triazol-1-yl)methyl)phenol], the IC50 was 100 to 1000 nM. Next, `COCCOc1cccc(Cn2nc(-c3nc(-c4ccc(OC(F)(F)F)cc4)no3)nc2C)c1` [Example 60, 5-(1-{[3-(2-Methoxyethoxy)phenyl]methyl}-5-methyl-1H-1,2,4-triazol-3-yl)-3-[4-(trifluoromethoxy)phenyl]-1,2,4-oxadiazole]: under 100 nM. Next, `Cc1nc(-c2nc(-c3ccc(OC(F)(F)F)cc3)no2)nn1Cc1cccc(OCC(N)=O)c1` [Example 61, 2-{3-[(5-Methyl-3-{3-[4-(trifluoromethoxy)phenyl]-124-oxadiazol-5-yl}-1H-124-triazol-1-yl)methyl]phenoxy}acetamide]: under 100 nM; `Cc1nc(-c2nc(-c3ccc(OC(F)(F)F)cc3)no2)nn1Cc1cccc(OCC(=O)N(C)C)c1` [Example 62, N N-Dimethyl-2-{3-[(5-methyl-3-{3-[4-(trifluoromethoxy)phenyl]-124-oxadiazol-5-yl}-1H-124-triazol-1-yl)methyl]phenoxy}acetamide]: under 100 nM.

Take `Cc1nc(-c2nc(-c3ccc(OC(F)(F)F)cc3)no2)nn1Cc1cccc(OC(C)C)c1` [Example 63, 5-(5-Methyl-1-{[3-(propan-2-yloxy)phenyl]methyl}-1H-1,2,4-triazol-3-yl)-3-[4-(trifluoromethoxy)phenyl]-1,2,4-oxadiazole]: the IC50 is under 100 nM. Then `CCOc1cccc(Cn2nc(-c3nc(-c4ccc(OC(F)(F)F)cc4)no3)nc2C)c1` [Example 64, 5-{1-[(3-Ethoxyphenyl)methyl]-5-methyl-1H-1,2,4-triazol-3-yl}-3-[4-(trifluoromethoxy)phenyl]-1,2,4-oxadiazole], with under 100 nM; and `Cc1nc(-c2nc(-c3ccc(OC(F)(F)F)cc3)no2)nn1Cc1cccc(OCCO)c1` [Example 65, 2-{3-[(5-Methyl-3-{3-[4-(trifluoromethoxy)phenyl]-1,2,4-oxadiazol-5-yl}-1H-1,2,4-triazol-1-yl)methyl]phenoxy}ethan-1-ol], with under 100 nM; and `Cc1nc(-c2nc(-c3ccc(OC(F)(F)F)cc3)no2)nn1Cc1cccc(OCC#N)c1` [Example 66, 2-{3-[(5-Methyl-3-{3-[4-(trifluoromethoxy)phenyl]-1,2,4-oxadiazol-5-yl}-1H-1,2,4-triazol-1-yl)methyl]phenoxy}acetonitrile], with 100 to 1000 nM.

With `Cc1nc(-c2nc(-c3ccc(OC(F)(F)F)cc3)no2)nn1Cc1cccc(OCCNC(=O)OC(C)(C)C)c1` [Example 67, Tert-butyl N-(2-{3-[(5-methyl-3-{3-[4-(trifluoromethoxy)phenyl]-1,2,4-oxadiazol-5-yl}-1H-1,2,4-triazol-1-yl)methyl]phenoxy}ethyl)carbamate], the IC50 was under 100 nM.

For the molecule `Cc1nc(-c2nc(-c3ccc(OC(F)(F)F)cc3)no2)nn1Cc1cccc(OC2COC2)c1` [Example 68, 5-(5-Methyl-1-{[3-(oxetan-3-yloxy)phenyl]methyl}-1H-1,2,4-triazol-3-yl)-3-[4-(trifluoromethoxy)phenyl]-1,2,4-oxadiazole], the IC50 is under 100 nM. Next, `Cc1nc(-c2nc(-c3ccc(OC(F)(F)F)cc3)no2)nn1Cc1cccc(OC2CCOCC2)c1` [Example 69, 5-(5-Methyl-1-{[3-(oxan-4-yloxy)phenyl]methyl}-1H-1,2,4-triazol-3-yl)-3-[4-(trifluoromethoxy)phenyl]-1,2,4-oxadiazole]: under 100 nM; `Cc1nc(-c2nc(-c3ccc(OC(F)(F)F)cc3)no2)nn1Cc1cccc(OCCN)c1` [Example 70, 5-(1-{[3-(2-Aminoethoxy)phenyl]methyl}-5-methyl-1H-1,2,4-triazol-3-yl)-3-[4-(trifluoromethoxy)phenyl]-1,2,4-oxadiazole]: 100 to 1000 nM. Then `Cc1nc(-c2nc(-c3ccc(OC(F)(F)F)cc3)no2)nn1Cc1cccc(OCCCO)c1` [Example 71, 3-{3-[(5-Methyl-3-{3-[4-(trifluoromethoxy)phenyl]-1,2,4-oxadiazol-5-yl}-1H-1,2,4-triazol-1-yl)methyl]phenoxy}propan-1-ol], with under 100 nM.
